The target in one assay is WDR5 (Homo sapiens (Human), UniProt P61964). Kind of assay: TR-FRET binding assay (displacement of 10mer-Thr-FAM probe from WDR5). The following applies: read-out: Ki for Inhibition of WDR5 by TR-FRET assay.
Assay [1] has as its system MV4:11 human cancer cell lines. Briefly: Anti-proliferative activity, CellTiter-Glo viability assay, 7 day protocol. The assay is classed as cell-based. As to conditions: Homo sapiens, MV4-11, 168 h, MV4:11 cells, 7 day incubation, read-out: GI50 on cellular proliferation of MV4:11 human cancer cell lines. In short, it runs like this: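 MV4:11 cells seeded at 3600 cells/ml and exposed to compounds for 7 days, 0.1% DMSO final. Viability measured by CellTiter-Glo luminescence. GI50 from three biological replicates, each in technical triplicate, given as mean ± S.E.M.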
In general terms: Cellular ATP, detected with luciferase, serves as a proxy for viable cell number.

[2] abbreviates: TR-FRET, 10mer-Thr-FAM probe, WDR5-His tag 2 nM, pH 7.0.

Where two headings read alike, the source gives them in different places.

Take `COc1cc(CNC(=O)c2cc(Cn3ccn(C)c3=N)cc(-c3c(C)cc(F)cc3F)c2)cc(OC)c1` [Example 52, N-(3,5-dimethoxybenzyl)-2′,4′-difluoro-5-((2-imino-3-methyl-2,3-dihydro-1H-imidazol-1-yl)methyl)-6′-methyl-[1,1′-biphenyl]-3-carboxamide]: the Ki at WDR5 (setting [2]) stood at 0.19 nM. In addition, in assay [1], the GI50 was determined as 510 nM.
In the same order, the values of `Cc1cc(CNC(=O)c2cc(Cn3ccn(C)c3=N)cc(-c3c(C)cc(F)cc3F)c2)ccc1Cl` [Example 53, N-(4-Chloro-3-methylbenzyl)-2′,4′-difluoro-5-((2-imino-3-methyl-2,3-dihydro-1H-imidazol-1-yl)methyl)-6′-methyl-[1,1′-biphenyl]-3-carboxamide] are 0.56 nM and 580 nM.
For `Cc1cc(C(C)NC(=O)c2cc(Cn3ccn(C)c3=N)cc(-c3ccc(F)cc3C)n2)ncc1Cl` (stereo not drawn) [Example 55, N-(1-(5-Chloro-4-methylpyridin-2-yl)ethyl)-6-(4-fluoro-2-methylphenyl)-4-((2-imino-3-methyl-2,3-dihydro-1H-imidazol-1-yl)methyl)picolinamide] the same measures were 1.8 nM and 1800 nM.
Regarding `Cc1cc(CNC(=O)c2cc(Cn3ccn(C)c3=N)cc(-c3ccc(F)cc3C)n2)ccc1Cl` [Example 56, N-(4-Chloro-3-methylbenzyl)-6-(4-fluoro-2-methylphenyl)-4-((2-imino-3-methyl-2,3-dihydro-1H-imidazol-1-yl)methyl)picolinamide], the Ki at WDR5 (setting [2]) was 1.2 nM. Further, the GI50 in assay [1] is 450 nM.
For `Cc1cc([C@@H](NC(=O)c2cc(Cn3ccn(C)c3=N)cc(-c3cccnc3C(F)(F)F)c2)C2CC2)ccc1F` [Example 60, (S)—N-(cyclopropyl(4-fluoro-3-methylphenyl)methyl)-3-((2-imino-3-methyl-2,3-dihydro-1H-imidazol-1-yl)methyl)-5-(2-(trifluoromethyl)pyridin-3-yl)benzamide] the same measures were below 0.1 nM and below 100 nM.
Consider `COc1cc(OC)cc(C(NC(=O)c2cc(Cn3ccn(C)c3=N)cc(-c3ncccc3C(F)(F)F)c2)C2CC2)c1` (stereo not drawn) [Example 61, N-(Cyclopropyl(3,5-dimethoxyphenyl)methyl)-3-((2-imino-3-methyl-2,3-dihydro-1H-imidazol-1-yl)methyl)-5-(3-(trifluoromethyl)pyridin-2-yl)benzamide], for which the Ki at WDR5 (setting [2]) stood at 2.8 nM. Moreover, the GI50 in assay [1] was 4200 nM.
In the same order, the values of `COc1cc(CNC(=O)c2cc(Cn3ccn(C)c3=N)cc(-c3ccc(F)cc3OC(F)F)c2)cc(OC)c1` [Example 62, 2′-(Difluoromethoxy)-N-(3,5-dimethoxybenzyl)-4′-fluoro-5-((2-imino-3-methyl-2,3-dihydro-1H-imidazol-1-yl)methyl)-[1,1′-biphenyl]-3-carboxamide] are 0.29 nM and 800 nM.
Turning to `COc1cc(OC)cc(C(NC(=O)c2cc(Cn3ccn(C)c3=N)cc(-c3ccc(F)cc3OC(F)F)c2)C2CC2)c1` (stereo not drawn) [Example 63, N-(Cyclopropyl(3,5-dimethoxyphenyl)methyl)-2′-(difluoromethoxy)-4′-fluoro-5-((2-imino-3-methyl-2,3-dihydro-1H-imidazol-1-yl)methyl)-[1,1′-biphenyl]-3-carboxamide], the Ki on WDR5 (setting [2]) was 0.1 nM. Moreover, in assay [1], the GI50 amounted to 460 nM.
With `Cc1cc([C@@H](NC(=O)c2cc(Cn3ccn(C)c3=N)cc(-c3ncccc3C(F)(F)F)c2)C2CC2)ccc1F` [Example 64, (S)—N-(Cyclopropyl(4-fluoro-3-methylphenyl)methyl)-3-((2-imino-3-methyl-2,3-dihydro-1H-imidazol-1-yl)methyl)-5-(3-(trifluoromethyl)pyridin-2-yl)benzamide], the Ki at WDR5 (setting [2]) is 0.59 nM. For the same compound, in assay [1], the GI50 amounted to 930 nM.
For `COc1cc(CNC(=O)c2cc(Cn3ccn(C)c3=N)cc(-c3c(C)cc(F)cc3C)c2)cc(OC)c1` [Example 65, N-(3,5-dimethoxybenzyl)-4′-fluoro-5-((2-imino-3-methyl-2,3-dihydro-1H-imidazol-1-yl)methyl)-2′,6′-dimethyl-[1,1′-biphenyl]-3-carboxamide] the same measures were 0.63 nM and 300 nM.
Take `Cc1cc([C@@H](NC(=O)c2cc(Cn3ccn(C)c3=N)cc(-c3ncc(F)cc3C)c2)C2CC2)ccc1F` [Example 66, (S)—N-(Cyclopropyl(4-fluoro-3-methylphenyl)methyl)-3-(5-fluoro-3-methylpyridin-2-yl)-5-((2-imino-3-methyl-2,3-dihydro-1H-imidazol-1-yl)methyl)benzamide]: the inhibition constant (Ki) on WDR5 (setting [2]) came out at 0.12 nM. In assay [1], the GI50 stood at 510 nM.
Turning to `COc1cc(CNC(=O)c2cc(Cn3ccn(C)c3=N)cc(-c3ncc(F)cc3C)c2)cc(OC)c1` [Example 67, N-(3,5-Dimethoxybenzyl)-3-(5-fluoro-3-methylpyridin-2-yl)-5-((2-imino-3-methyl-2,3-dihydro-1H-imidazol-1-yl)methyl)benzamide], the Ki on WDR5 was 3.9 nM. In addition, the GI50 in assay [1] came to 3800 nM.
With `COc1cc(OC)cc(C(NC(=O)c2cc(Cn3ccn(C)c3=N)cc(-c3ncc(F)cc3C)c2)C2CC2)c1` (stereo not drawn) [Example 68, N-(Cyclopropyl(3,5-dimethoxyphenyl)methyl)-3-(5-fluoro-3-methylpyridin-2-yl)-5-((2-imino-3-methyl-2,3-dihydro-1H-imidazol-1-yl)methyl)benzamide], the Ki at WDR5 amounted to 0.35 nM. Moreover, the GI50 in assay [1] was determined as 2700 nM.
Regarding `Cc1ccnc(C(NC(=O)c2cc(Cn3ccn(C)c3=N)cc(-c3ncc(F)cc3C)c2)C2CC2)c1` (stereo not drawn) [Example 69], at WDR5 (setting [2]), the Ki turned out to be 2.4 nM. In addition, the GI50 in assay [1] came out at 5100 nM.
In the same order, the values of `Cc1ccnc(C(NC(=O)c2cc(Cn3ccn(C)c3=N)cc(-c3ccc(F)cc3OC(F)F)c2)C2CC2)c1` (stereo not drawn) [Example 71, N-(Cyclopropyl(4-methylpyridin-2-yl)methyl)-2′-(difluoromethoxy)-4′-fluoro-5-((2-imino-3-methyl-2,3-dihydro-1H-imidazol-1-yl)methyl)-[1,1′-biphenyl]-3-carboxamide] are 0.33 nM and 1900 nM.
Consider `Cn1ccn(Cc2cc(C(=O)NC(CC(=O)O)c3ccc(Cl)c(Cl)c3)cc(-c3ccc(F)cc3C(F)(F)F)c2)c1=N` (stereo not drawn) [Example 84, 3-(3,4-Dichlorophenyl)-3-(4′-fluoro-5-((2-imino-3-methyl-2,3-dihydro-1H-imidazol-1-yl)methyl)-2′-(trifluoromethyl)-[1,1′-biphenyl]-3-carboxamido)propanoic acid], for which the Ki on WDR5 (setting [2]) came to 0.12 nM. The GI50 in assay [1] was 2100 nM.
In the same order, the values of `Cc1ccnc([C@@H](NC(=O)c2cc(Cn3ccn(C)c3=N)cc(-c3ccc(F)cc3C)c2)C2CC2)c1` [Example 91, (S)—N-(Cyclopropyl(4-methylpyridin-2-yl)methyl)-4′-fluoro-5-((2-imino-3-methyl-2,3-dihydro-1H-imidazol-1-yl)methyl)-2′-methyl-[1,1′-biphenyl]-3-carboxamide] are below 0.1 nM and 210 nM.
For the compound `COc1cc(CNC(=O)c2cc(Cn3ccn(C)c3=N)cc(-c3ccc(F)cc3C(F)(F)F)c2)cc(OC)c1` [Example 98, N-(3,5-Dimethoxybenzyl)-4′-fluoro-5-((2-imino-3-methyl-2,3-dihydro-1H-imidazol-1-yl)methyl)-2′-(trifluoromethyl)-[1,1′-biphenyl]-3-carboxamide], the Ki at WDR5 (setting [2]) amounted to 0.06 nM. Moreover, the GI50 in assay [1] is 160 nM.

Broadly, the Ki is a dissociation constant, usually derived from enzyme kinetics or from competition with a known ligand.

For the origin of these results see patent US10844044B2 (Vanderbilt University, priority 2018, dated 2020).
